Assay results reported in patent US11352354B2, “Substituted penta-fused hexa-heterocyclic compounds, preparation method therefor, drug combination and use thereof” (Xiamen University, priority 2017, dated 2022).

Columns and labels:
MDA-MB-231 cells = assay: Vacuolation of MDA-MB-231 cells caused by inhibition of compounds on PIKfyve (microscopy); format: cell-based; conditions: MDA-MB-231 cells; also: key: '+' represents the degree of vacuolation; ++: more '+' indicates more obvious vacuolation; +++: more '+' indicates more obvious vacuolation; ++++: more '+' indicates more obvious vacuolation; '−' represents no vacuolation
In short: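 MDA-MB-231 cells in 12-well plates at 37 °C, 5% CO2 were observed by microscopy after 24 and 48 h of culture for cytoplasmic vacuolation as a readout of PIKfyve inhibition. Scoring was semi-quantitative, from − (none) to increasing +.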

PIKfyve protein = PIKfyve protein (Homo sapiens (Human), UniProt Q9Y2I7); assay: Dissociation equilibrium constant (Kd) of compound and PIKfyve protein, DiscoverX KINOMEscan; format: binding; conditions: eleven 3-fold dilutions, curve fitting
Protocol: II. Determination of Dissociation Equilibrium Constant (Kd Value) of Compound and PIKfyve Protein
The Kd value was determined by DiscoverX's KINOMEscan™ technology according to the following steps:
1. Preparation of magnetic beads: biotin-labeled small molecule ligand and avidin-coated magnetic beads were allowed to interact at room temperature for 30 minutes, and then added with excess biotin, followed by washing with a blocking solution (1% BSA, 0.05% Tween 20, 1 mM DTT) to remove unbound ligand.
2. Binding reaction: in a 384 plate, 0.02 mL system, DNA-labeled protein, small molecule ligand-bound magnetic beads, and different concentrations of compound to be tested were mixed in a reaction solution (0.17×PBS, 0.05% Tween 20, 6 mM DTT) at room temperature with shaking for 1 hr, to which was added an eluant (1×PBS, 0.05% Tween 20) for elution. Magnetic beads were resuspended by an eluant (1×PBS, 0.05% Tween 20, 0.5 μM non-biotin-labeled small molecule ligand), and shaken at room temperature for 30 min before separating out the eluant.
3. Determination of Kd value: the content of protein in the above eluate was determined by qPCR. Eleven 3-fold dilution concentrations were determined for the compound to be tested, with 3 DMSO controls for each concentration, and the Kd value was obtained by curve fitting.

JeKo-1 cells = assay: Tumor cell growth inhibition by MTS method, JeKo-1; format: cell-based; conditions: Homo sapiens, JeKo-1, 120 h, 5 days of culture
Protocol: III. Determination of IC50 Value of Compound for Inhibiting Tumor Cell Growth by MTS Method
1. Cell plating: cells in logarithmic growth phase were counted and inoculated in a 96-well plate (20000 cells per well).
2. Administrating agent to cell: 10 mM compound mother solution in DMSO was subjected to 3 fold-gradient dilution, to set 8 concentrations, which were then added to various wells, with three replicates for each concentration, and three blank wells (only culture medium) and three negative controls (containing 0.1% DMSO) on each plate.
3. […] The OD value at 490 nm was measured with microplate reader OD490. The cell growth inhibition rate was calculated by the following formula: Cell growth inhibition rate %=1−(ODexperimental group−ODblank group)/(ODnegative group−ODblank group)×100%
The semi-inhibitory concentration IC50 of the compound acting on cell growth was calculated using GradPad Prism 5 software according to the measured cell growth inhibition rate.
In the following table it lists the IC50 value or the inhibition rates of some compounds at 10 μM against JeKo-1 cells

Toledo cells = assay: Growth inhibition of PIKfyve-mediated tumor cells by Cell Titer Glo method, Toledo; format: cell-based; conditions: Homo sapiens, 120 h, CellTiter-Glo, 5 days of culture, read-out: Inhibition rate % (Toledo)
Protocol: (§1) IV. Determination of Growth Inhibition Rates of Compounds Against PIKfyve-Mediated Tumor Cells by Cell Titer Glo Method
(§2) 1. Cell plating: cells in logarithmic growth phase were counted and inoculated in 384-well plate.
(§3) 3. […] RLU was measured on PHERAstar Plus.

ST486 cells = assay: Growth inhibition of PIKfyve-mediated tumor cells by Cell Titer Glo method, ST486; format: cell-based; conditions: Homo sapiens, 120 h, CellTiter-Glo, 5 days of culture, read-out: Inhibition rate % (ST486)
Protocol: as §1, §2, §3

PIKfyve protein, sequence (Q9Y2I7 whole entry): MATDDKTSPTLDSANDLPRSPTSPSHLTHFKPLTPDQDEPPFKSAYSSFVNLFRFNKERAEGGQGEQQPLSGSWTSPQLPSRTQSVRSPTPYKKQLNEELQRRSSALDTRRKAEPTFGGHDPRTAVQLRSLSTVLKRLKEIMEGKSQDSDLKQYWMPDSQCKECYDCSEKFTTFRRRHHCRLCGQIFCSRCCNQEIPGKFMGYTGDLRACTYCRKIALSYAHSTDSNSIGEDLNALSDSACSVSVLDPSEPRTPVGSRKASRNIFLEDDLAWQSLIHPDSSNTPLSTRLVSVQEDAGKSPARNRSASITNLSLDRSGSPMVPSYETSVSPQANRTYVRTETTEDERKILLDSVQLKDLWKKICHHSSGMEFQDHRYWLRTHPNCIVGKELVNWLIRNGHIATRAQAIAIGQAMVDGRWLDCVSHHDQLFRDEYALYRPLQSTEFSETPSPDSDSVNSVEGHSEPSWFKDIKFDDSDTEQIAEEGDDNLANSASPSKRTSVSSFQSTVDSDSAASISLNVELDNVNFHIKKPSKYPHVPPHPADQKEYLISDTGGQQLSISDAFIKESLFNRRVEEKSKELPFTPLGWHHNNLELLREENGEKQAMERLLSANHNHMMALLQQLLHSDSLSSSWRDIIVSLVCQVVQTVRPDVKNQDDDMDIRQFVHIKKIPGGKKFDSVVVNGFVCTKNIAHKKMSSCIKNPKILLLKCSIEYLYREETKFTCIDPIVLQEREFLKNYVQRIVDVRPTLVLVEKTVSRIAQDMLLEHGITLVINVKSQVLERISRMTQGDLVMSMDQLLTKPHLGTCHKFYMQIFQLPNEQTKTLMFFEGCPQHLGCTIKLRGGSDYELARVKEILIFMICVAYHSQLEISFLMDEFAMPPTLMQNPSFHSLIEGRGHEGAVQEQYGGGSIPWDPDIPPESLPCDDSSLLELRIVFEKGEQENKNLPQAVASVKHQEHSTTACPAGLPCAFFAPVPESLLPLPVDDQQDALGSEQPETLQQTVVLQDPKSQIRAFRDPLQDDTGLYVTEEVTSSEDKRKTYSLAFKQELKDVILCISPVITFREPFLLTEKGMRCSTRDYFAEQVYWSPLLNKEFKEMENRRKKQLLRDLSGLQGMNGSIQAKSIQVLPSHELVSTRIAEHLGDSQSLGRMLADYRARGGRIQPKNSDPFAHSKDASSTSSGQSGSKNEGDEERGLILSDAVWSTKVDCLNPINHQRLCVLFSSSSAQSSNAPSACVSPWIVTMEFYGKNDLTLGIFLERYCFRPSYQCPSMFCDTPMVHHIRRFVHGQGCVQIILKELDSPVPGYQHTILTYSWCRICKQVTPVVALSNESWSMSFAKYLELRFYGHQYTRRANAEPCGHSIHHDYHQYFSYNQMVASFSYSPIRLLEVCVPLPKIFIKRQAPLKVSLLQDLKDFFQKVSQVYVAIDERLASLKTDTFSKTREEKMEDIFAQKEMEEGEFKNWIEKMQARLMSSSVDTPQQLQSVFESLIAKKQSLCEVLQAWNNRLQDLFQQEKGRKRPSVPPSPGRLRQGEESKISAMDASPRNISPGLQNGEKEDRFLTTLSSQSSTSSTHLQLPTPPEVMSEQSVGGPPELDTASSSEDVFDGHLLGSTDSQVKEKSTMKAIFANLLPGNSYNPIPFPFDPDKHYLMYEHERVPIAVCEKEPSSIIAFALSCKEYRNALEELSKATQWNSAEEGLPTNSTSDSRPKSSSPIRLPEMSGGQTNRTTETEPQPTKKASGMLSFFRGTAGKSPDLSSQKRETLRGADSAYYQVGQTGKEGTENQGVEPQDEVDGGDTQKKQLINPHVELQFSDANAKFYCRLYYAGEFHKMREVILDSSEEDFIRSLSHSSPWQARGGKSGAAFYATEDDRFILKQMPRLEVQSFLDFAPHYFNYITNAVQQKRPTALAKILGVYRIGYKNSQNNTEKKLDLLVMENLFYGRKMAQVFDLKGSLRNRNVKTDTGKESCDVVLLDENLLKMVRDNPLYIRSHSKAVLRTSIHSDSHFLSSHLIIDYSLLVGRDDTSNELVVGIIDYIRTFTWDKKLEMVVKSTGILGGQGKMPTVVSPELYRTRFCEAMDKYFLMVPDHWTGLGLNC

SMILES | degree of vacuolation, 1 μM, 24 h (MDA-MB-231 cells) | degree of vacuolation, 1 μM, 48 h (MDA-MB-231 cells) | degree of vacuolation, 10 μM, 24 h (MDA-MB-231 cells) | degree of vacuolation, 10 μM, 48 h (MDA-MB-231 cells) | Kd (PIKfyve protein) [nM] | IC50 (JeKo-1 cells) [µM] | inhibition at 3.3 µM (Toledo cells) [%] | inhibition at 3.3 µM (ST486 cells) [%] | inhibition at 10 µM (JeKo-1 cells; 10 μM, read-out: cell growth inhibition rate of compounds at 10 μM) [%]
O=C(Nc1cccc(C(F)(F)F)c1)c1cccc(Nc2nc(-c3cccnc3)c3[nH]ccc3n2)c1 [V-c-4] | ++ | ++ | +++ | +++ | 33 | 5.94 | 99.5 | 76.2 | 
O=C(Nc1cccc(Nc2nc(-c3cccnc3)c3[nH]ccc3n2)c1)c1cccc(C(F)(F)F)c1 [V-c-18] | +++ | +++ | +++ | +++ | 6.4 | 0.862 | 95.2 | 96 | 
Cc1ccc(NC(=O)c2cccc(C(F)(F)F)c2)cc1Nc1nc(-c2cccs2)c2[nH]ccc2n1 [V-c-43] |  |  |  |  | > 30000 |  |  |  | 
COc1ccc(C(F)(F)F)cc1NC(=O)c1ccc(C)c(Nc2nc(-c3cccnc3)c3[nH]ccc3n2)c1 [V-c-12] | +++ | +++ | +++ | +++ | > 30000 | 2.79 | 95.6 | 72.3 | 
Cc1ccc(C(=O)Nc2cc(C(F)(F)F)ccc2Cl)cc1Nc1nc(-c2cccnc2)c2[nH]ccc2n1 [V-c-14] | ++ | − | ++ | ++ | 20 |  | 99.6 | 52.2 | 46.6
Cc1ccc(NC(=S)Nc2cccc(C(F)(F)F)c2)cc1Nc1nc(-c2cccnc2)c2[nH]ccc2n1 [V-c-16] | ++ | ++ | ++ | ++ | 110 | 6.22 | 99.5 | 60.3 | 
Cc1ccc(NC(=O)c2cc(C(F)(F)F)cc(C(F)(F)F)c2)cc1Nc1nc(-c2cccnc2)c2[nH]ccc2n1 [V-c-21] |  |  |  |  | 910 |  | 99.5 | 23.8 | 
Cc1ccc(C(=O)Nc2cc(C(F)(F)F)cc(C(F)(F)F)c2)cc1Nc1nc(-c2cccnc2)c2[nH]ccc2n1 [V-c-9] |  |  |  |  | 29 |  | 19.3 | 37.7 | 
Cc1cc(NC(=O)c2cccc(C(F)(F)F)c2)ccc1Nc1nc(-c2cccnc2)c2[nH]ccc2n1 [V-c-24] |  |  |  |  | > 30000 |  | 97.3 | 55.8 | 
Cc1ccc(C(=O)Nc2cccc(OC(F)(F)F)c2)cc1Nc1nc(-c2cccs2)c2[nH]ccc2n1 [V-c-63] |  |  |  |  | > 30000 |  |  |  | 
Cc1ccc(NS(=O)(=O)c2cccc(C(F)(F)F)c2)cc1Nc1nc(-c2cccnc2)c2[nH]ccc2n1 [V-c-20] | − | ++ | − | ++ | 1000 | 9.41 | 99.7 | 33.3 | 
COc1ccc(C(F)(F)F)cc1NC(=O)c1ccc(C)c(Nc2nc(-c3ccco3)c3[nH]ccc3n2)c1 [V-c-52] |  |  |  |  | > 30000 |  |  |  | 
Cc1ccc(C(=O)Nc2cccc(OC(F)(F)F)c2)cc1Nc1nc(-c2ccccc2)c2[nH]ccc2n1 [V-c-61] |  |  |  |  | > 30000 |  |  |  | 
CS(=O)(=O)Nc1cccc(Nc2nc(-c3cccnc3)c3[nH]ccc3n2)c1 [V-c-1] | − | − | ++ | ++ | 130 |  | 43.1 | 35.2 | 
Cc1ccc(NC(=O)c2cccc(C(F)(F)F)c2)cc1Nc1nc(-c2ccco2)c2[nH]ccc2n1 [V-c-42] |  |  |  |  | > 30000 |  |  |  | 
Cc1ccc(NC(=O)c2cccc(C(F)(F)F)c2)cc1Nc1nc(-c2ccccc2)c2[nH]ccc2n1 [V-c-41] |  |  |  |  | > 30000 |  |  |  | 
COc1ccc(C(F)(F)F)cc1NC(=O)c1ccc(C)c(Nc2nc(-c3cccs3)c3[nH]ccc3n2)c1 [V-c-53] |  |  |  |  | > 30000 |  |  |  | 
Cc1ccc(NC(=O)c2ccc(CN3CCN(C)CC3)c(C(F)(F)F)c2)cc1Nc1nc(-c2cccnc2)c2[nH]ccc2n1 [V-c-22] |  |  |  |  | 21000 | 1.54 | 64.2 | 57.1 | 
Cc1ccc(C(=O)Nc2cccc(OC(F)(F)F)c2)cc1Nc1nc(-c2ccco2)c2[nH]ccc2n1 [V-c-62] |  |  |  |  | > 30000 |  |  |  | 
c1cncc(-c2nc(Nc3cc(N4CCOCC4)cc(N4CCOCC4)c3)nc3cc[nH]c23)c1 [V-c-2] | − | − | − | − | 2000 |  | < 10 | 18 | 
COc1ccc(C(F)(F)F)cc1NC(=O)c1ccc(C)c(Nc2nc(-c3ccccc3)c3[nH]ccc3n2)c1 [V-c-51] |  |  |  |  | > 30000 |  |  |  | 
Cc1ccc(NC(=O)c2cccc(C(F)(F)F)c2)cc1Nc1nc(-c2ccncc2)c2[nH]ccc2n1 [V-c-39] |  |  |  |  | > 30000 |  | 49.1 | 9.57 | 
Cc1ccc(C(=O)Nc2cccc(C(F)(F)F)c2)cc1Nc1nc(-c2ccncc2)c2[nH]ccc2n1 [V-c-38] |  |  |  |  | > 30000 |  | 53.3 | 30 | 
Cc1cn(-c2cc(NC(=O)c3ccc(C)c(Nc4nc(-c5cccnc5)c5[nH]ccc5n4)c3)cc(C(F)(F)F)c2)cn1 [V-c-10] | − | − | ++ | ++ | 3500 |  | 94.8 | 93 | 
Cc1ccc(C(=O)Nc2cccc(C(F)(F)F)c2)cc1Nc1nc(-c2cccnc2)c2[nH]ccc2n1 [V-c-7] | ++ | ++ | + | + |  | 3.28 | 95.8 | 91.3 | 
Cc1ccc(C(=O)Nc2ccc(CN3CCN(C)CC3)c(C(F)(F)F)c2)cc1Nc1nc(-c2cccnc2)c2[nH]ccc2n1 [V-c-11] | − | − | − | − | 700 |  | 95.3 | 96.2 | 
Cc1ccc(NC(=O)c2cccc(C(F)(F)F)c2)cc1Nc1nc(-c2cccnc2)nc2c1cnn2C [III-b-10] | − | + | − | + |  | 1.88 |  |  | 
Cc1ccc(NC(=O)c2cccc(C(F)(F)F)c2)cc1Nc1nc(-c2cccnc2)c2c(ccn2C)n1 [V-c-40] | + | +++ | + | +++ | 380 |  | 98.8 | 57.1 | 
